Assay results from patent publication US20080200345A1, “HIGH THROUGHPUT METHOD TO IDENTIFY LIGANDS FOR CELL ATTACHMENT” (priority 2003, published 2008).

Test system: MC3T3-E1 cells
Assay: ECM screen: adhesion of MC3T3-E1 osteoblast cells to immobilized adhesion ligands (nuclei count)
Assay type: cell-based
Conditions: best factors approach
Source text: A statistical design was developed with special consideration of the surface chemistry requirements. In particular, in this experiment the scenario shown in FIG. 6 was used, wherein the overall adhesion ligand density was kept constant from well to well and only the adhesion ligand composition was allowed to change. In other words, the concentration of a single adhesion ligand could be different from well to well, but each well has the same amount of adhesion ligand immobilized overall. This scenario is further described above. An example of such design is shown in the spreadsheet in FIG. 7. The top row in FIG. 7 lists the 10 cell adhesion ligands used in this particular screen. The first column is a list of the experimental points that translate into a well in the 96-well plate, e.g., 52 wells in this case. The numbers in the spreadsheet are the actual volumes (in µL) of factor that is added to a particular well. In this particular design, factors get added to the wells at three volumes, e.g., 5 µL, 25 µL, or 50. mu.L. The total well volume in this case is 50 µL. Thus, for wells where one factor is added at 50 µL, the final well composition will comprise a single adhesion ligand covalently immobilized on the well surface. Accordingly, if 25 µL of a factor is added to a well, a second factor is added at 25 µL also, and the final well composition will comprise a mixture of two different cell adhesion ligands covalently immobilized on the well surface. When 5 µL of a factor are added, nine other factors are added at 5 µL each, as well, thus resulting in wells that comprise a mixture of all 10 cell adhesion ligands on the well surface. These experimental points containing all 10 adhesion ligands are called “mid points” and are an integral part of the statistical design in this example.
With reference now to FIG. 8, a 96-well plate layout is shown, which was translated from the particular statistical design shown in FIG. 7. In particular, the 96-well plate includes the well compositions indicated in FIG. 7, e.g., cell adhesion ligand combinations immobilized at the bottom of each well. In particular, the experimental runs in FIG. 7 correspond to rows/columns in FIG. 8, as follows: runs 1-10 in the design in FIG. 7 represent row B, columns 2-11, respectively on the plate layout in FIG. 8; runs 11-20 represent row C, columns 2-11; runs 21-30 represent row D, columns 2-11; runs 31-40 represent row E, columns 2-11; runs 41-50 represent row F, columns 2-11 and runs 51 and 52 represent row G, columns 2 and 3, respectively. As shown by the statistical design in FIG. 7 and the corresponding 96-well plate layout in FIG. 8, it is an embodiment of the present invention that, in addition to mixtures of agents, single agents can be placed in the receptacles. […]

Substance: poly-L-lysine
- Effect on cell count, mixture-model analysis (Ln(cell count-10% serum+1) vs. deviation from reference blend, FIG. 12): diminishes
- Effect on cell count, mixture-model analysis (Ln(cell count-no serum+1) vs. deviation from reference blend, FIG. 11): marginal effect

Substance: laminin
- Effect on cell count, mixture-model analysis (Ln(cell count-10% serum+1) vs. deviation from reference blend, FIG. 12): positive effect
- Effect on cell count, mixture-model analysis (Ln(cell count-no serum+1) vs. deviation from reference blend, FIG. 11): increase the cell count
